Earlier results, collected in US6297239A, “Inhibitors of prenyl-protein transferase” (Merck & Co., Inc., priority 1998, dated 2001).

Tested on: farnesyl-protein transferase
Settings: via inhibition of HMG-CoA reductase

| Structure (SMILES) | indirect inhibition of farnesyl-protein transferase in vivo |
| --- | --- |
| CC[C@H](C)C(=O)O[C@H]1C[C@@H](C)C=C2C=C[C@H](C)[C@H](CC[C@@H]3C[C@@H](O)CC(=O)O3)[C@H]21 [lovastatin] | Indirect inhibition |
| CC[C@H](C)C(=O)O[C@H]1CCC=C2C=C[C@H](C)[C@H](CC[C@@H]3C[C@@H](O)CC(=O)O3)[C@H]21 [compactin] | Indirect inhibition |
